# What was measured:
# [1] = cited from earlier work
# [2] = test system: POPE (PE) zwitterionic vesicles; assay: Serial dilution vesicle fluorescence intensity experiments, PE vesicles; format: binding; settings: sensor 25 μM (PSVue™380 1 μM), 50 mM HEPES, 5% DMSO, pH 7.5
# Text: (§1) The following equations were used for the calculations: […]
# [3] = test system: POPG (PG) negatively charged vesicles; assay: Serial dilution vesicle fluorescence intensity experiments, PG vesicles; format: binding; settings: sensor 25 μM (PSVue™380 1 μM), 50 mM HEPES, 5% DMSO, pH 7.5
# Text: as §1
# [4] = test system: TOCL (CL) negatively charged vesicles; assay: Serial dilution vesicle fluorescence intensity experiments, CL vesicles; format: binding; set-up: ΔΔFI: unit not given here; settings: for ΔΔFI: sensor 25 μM (PSVue™380 1 μM), 50 mM HEPES, 5% DMSO, pH 7.5
# Text: as §1
# [5] = test system: POPA (PA) negatively charged vesicles; assay: Serial dilution vesicle fluorescence intensity experiments, PA vesicles; format: binding; settings: for ΔΔFI: PA vesicles, sensor 25 μM (PSVue™380 1 μM), 50 mM HEPES, 5% DMSO, pH 7.5
# Text: as §1
# [6] = test system: DOPS (PS) negatively charged vesicles; assay: Serial dilution vesicle fluorescence intensity experiments, PS vesicles; format: binding; set-up: ΔΔFI: unit not given here; settings: for ΔΔFI: sensor 25 μM (PSVue™380 1 μM), 50 mM HEPES, 5% DMSO, pH 7.5
# [7] = test system: DOPS (PS) negatively charged vesicles; assay: as above; format: binding; set-up: ΔΔFI: unit not given here; settings: for ΔΔFI: sensor 25 μM (PSVue™380 1 μM), 50 mM HEPES, 5% DMSO, pH 7.5; remark: listed apart in the source
# Text: as §1
# It is estimated that a mammalian cell membrane is composed of 10% PS, with the majority located on the inner leaflet in the healthy state. However, during the early stages of apoptosis, this asymmetry is lost and PS becomes symmetrically distributed resulting in ˜5% of PS externalized to the outer leaflet. To address if compounds of this application could potentially be used for the detection of the PS externalization event during apoptosis, the exemplary sensors were screened against PC vesicles containing biologically-relevant levels of PS ([…]; assuming that approximately half of the lipid head groups will be exposed to the interior of the vesicle). The resulting ΔΔFI for vesicle concentrations up to 40 μM are presented in FIG. 7 and Table 1 (ΔΔFI for vesicle concentrations up to 200 μM is presented in FIG. 4).
# [8] = test system: Gram-positive bacteria (B. subtilis, B. megaterium, M. luteus, S. epidermidis); settings: sensor 10 μM; λex/em 350/476 nm
# Experimental: Bacteria samples were titrated from 10^8-10^10 cells/mL in a large-volume 12 well plate. Bacteria samples were added to black 384-well plates in triplicate.
# [9] = test system: E. coli K-12 BW25113 cells in presence of MV4-11 cells; assay: Fluorescence microscopy experiments with bacteria and mammalian cells; format: cell-based; settings: 10^8 cells/mL E. coli; sensor 40 μM
# Experimental: MV4-11 mammalian cells and bacteria samples were both added to a microscope chamber slide and left to incubate for 5 minutes. Visualization was performed first in bright field and then auto-fluorescence was recorded with UV excitation. Sensors were then added into the chamber at appropriate concentrations and fluorescence emission was captured.
# [10] = test system: zwitterionic vesicles (PC, PE); assay: Vesicle fluorescence intensity experiments, zwitterionic vesicles; format: binding; settings: sensor 25 μM; vesicles up to 200 μM; λex/em 350/476 nm
# Experimental: (§2) Small Unilamellar Vesicles (SUVs) were prepared by the extrusion method. Appropriate amounts of lipid in the desired proportions were weighed out to create 10 mM liposome suspensions. The lipids were then dissolved in a minimum amount of chloroform and vortexed to ensure thorough mixing. The excess solvent was then dried off under a gentle stream of nitrogen and allowed to dry overnight in a vacuum dessicator to remove any remaining traces of solvent. The resulting lipid film was then hydrated with 2 mL of HEPES buffer (50 mM HEPES, pH 7.5) for 1 h. The sample was then subjected to five cycles of freeze-thaw-vortex, cycling between liquid nitrogen and a 60° C. water bath. The resulting suspension of multilamellar vesicles (MLVs) was then extruded 25 times through a 0.1 μm polycarbonate membrane installed in a mini-extruder (Avanti Polar Lipids, Alabaster, AL) to form SUV.
# 10 mM stock solutions of vesicles were diluted separately to 400 μM and 80 μM in pH 7.5, 50 mM HEPES buffer. […] Fluorescence intensities measured were used to calculate the following parameters: ΔFIexc, ΔΔFIexc, ΔFImon, ΔΔFImon, ΔΔFIexc/mon and ΔΔΔFI. […]
# (§3) The fluorescence enhancement of the excimer (ΔFIexc) species in the presence of vesicles was calculated using equation 1, which is defined as the ratio of the emission intensities of the sensor-vesicle sample and the sensor alone.
# [11] = test system: negatively charged vesicles (PA, PS, PG, CL); assay: Vesicle fluorescence intensity experiments, all negatively charged vesicles; format: binding; settings: sensor 25 μM; vesicles up to 200 μM; λex/em 350/476 nm
# Experimental: as §2
# 10 mM stock solutions of vesicles were diluted separately to 400 μM and 80 μM in pH 7.5, 50 mM HEPES buffer. […] The sensors were dissolved to a concentration of 50 μM (from 800 μM stock solutions in 100% DMSO) in 50 mM HEPES, pH 7.5, 10% DMSO buffer. […] Fluorescence intensities measured were used to calculate the following parameters: ΔFIexc, ΔΔFIexc, ΔFImon, ΔΔFImon, ΔΔFIexc/mon and ΔΔΔFI. The following equations were used for the calculations: […]
# Of these, PC and PE represented the zwitterionic vesicles; PS (−1), PA (−1), PG (−1) and CL (−2) represented the negatively charged vesicles.
# as §3
# PA vesicles = assay: Zinc metalation fluorescence experiments; format: binding; settings: for FIexc response to increasing PA vesicle concentrations, unmetallated: acid-treated glassware, chelex-treated buffers, non-normalized FIexc; for ability to detect PA vesicles in the absence of Zn^2+ (ΔFI): unmetallated sensors, PA vesicles 0-200 μM
# Experimental: Vesicle fluorescence intensity experiments were performed in the absence or presence of zinc(II) (trifluoromethanesulfonate salt). Unmetallated PSVue™380 (PSVue™380*) was also included for reference.
# All glassware was treated with 0.1 M HCl overnight, rinsed three times with MilliQ water, and oven dried. […] The sensor-zinc solutions were then combined with PA vesicles, prepared as described above, incubated as described above and the fluorescence emission intensity was then measured as described above.
# In an effort to eliminate this possibility, all glassware was acid-treated and all buffers were chelex-treated to remove any metals, and the screens were repeated with PA vesicles. For these experiments, original non-normalized FIexc values were analyzed.
# [12] = test system: WT and mutant E. coli strains; assay: Bacteria mutant strain knockout fluorimetry, E. coli; format: cell-based; settings: for effect of LPS kinase knockouts on fluorescence fold: E. coli ΔWaaP, ΔwaaG; for effect of cardiolipin synthase knockouts on fluorescence fold: E. coli ΔclsA, ΔclsB, ΔclsC
# Text: Fluorescence intensities were used to calculate the excimer emission in response to bacterial strains. Measurements were averaged over two triplicates.
# [13] = 33% CL vesicles, 20 μM vesicles
# [14] = CL vesicles (50%), 5 μM vesicles
# [15] = CL vesicles (50%), 20 μM vesicles
# [16] = 75% PS vesicles, 20 μM vesicles
# [17] = PS vesicles (50%), 5 μM vesicles
# [18] = PS vesicles (50%), 20 μM vesicles
# [19] = 25% PS vesicles, 20 μM vesicles
Structure (SMILES),ΔΔFI ([2]; 5 μM vesicles),ΔΔFI ([2]; 20 μM vesicles),ΔΔFI ([3]; 5 μM vesicles),ΔΔFI ([3]; 20 μM vesicles),"ΔΔFI ([4]; 33% CL vesicles, 5 μM vesicles)","ΔΔFI [4, 13]","ΔΔFI [4, 14]","ΔΔFI [4, 15]",ΔΔFI ([5]; 5 μM vesicles),ΔΔFI ([5]; 20 μM vesicles),"ΔΔFI ([6]; 75% PS vesicles, 5 μM vesicles)","ΔΔFI [6, 16]","ΔΔFI [6, 17]","ΔΔFI [6, 18]","ΔΔFI ([7]; 5% PS vesicles, 5 μM vesicles)","ΔΔFI ([7]; 5% PS vesicles, 20 μM vesicles)","ΔΔFI ([7]; 25% PS vesicles, 5 μM vesicles)","ΔΔFI [7, 19]",also measured
c1ccc(CNCc2ccccn2)nc1 [DPA],–,–,–,–,–,–,–,–,–,–,–,–,–,–,–,–,–,–,pKa [1]: 2.60; pKa (first given) [1]: 7.30; pKa (third printed) [1]: 1.12
c1cc2ccc3ccc(CCCCN4CCNCCNCCNCC4)c4ccc(c1)c2c34 [I-2],1.1,1.6,2.5,5.5,3,7.2,4.4,12,4.3,12.3,4.2,11.7,2.8,7.6,1.6,3.1,1.8,4.3,–
c1cc2ccc3ccc(CCCCN4CCCNCCNCCCNCC4)c4ccc(c1)c2c34 [I-4],1,1.3,3.4,7.7,3.9,9.2,5.9,16.3,7.3,21.7,7.1,16.7,4.5,10.3,2.2,3.9,2.9,5.6,"sensitivity compared to PSVue™380, 20 μM CL vesicles [4]: comparable; detection of Gram-positive bacteria with a fluorometer in bulk solution [8]: can detect Gram-positive bacteria; sensing PA compared to PSVue™380 ([5]; Table 1 comparison): superior; sensitivity compared to PSVue™380, 5 μM PS vesicles ([6]; 5 μM PS vesicles): comparable; detection of PC vesicles containing 5 and 25% PS ([7]; 5 and 25% PS, corresponding to 2.5 and 12.5% of PS exposed to solution): efficiently detected"
c1ccc(CN(Cc2ccccn2)Cc2ccc3ccc4cccc5ccc2c3c45)nc1 [I-5],0.9,1,1.7,3.9,2.5,7.9,5,15.9,4.4,14.1,5.4,16.7,2.9,8.8,1.4,2.6,1.9,4,"sensitivity compared to PSVue™380, 20 μM CL vesicles [4]: comparable; detection of bacterial cells versus mammalian MV4-11 cells by microscopy [9]: bacterial cells are detected more readily than mammalian MV4-11 cells"
c1ccc(CN(CCCCc2ccc3ccc4cccc5ccc2c3c45)Cc2ccccn2)nc1 [I-6],1,1,1.8,2.7,1.9,3.1,2.7,4.3,4.4,6.9,4.5,7.5,2.9,4.8,1.6,2.4,2.1,3,–
O=C(CCCCc1ccc2ccc3cccc4ccc1c2c34)NCCNC(=O)c1ccc(CN(Cc2ccccn2)CC(O)CN(Cc2ccccn2)Cc2ccccn2)nc1 (stereo not shown) [I-12],–,–,–,–,–,–,–,–,–,–,–,–,–,–,–,–,–,–,"ΔFIexc for zwitterionic vesicles [10]: ≤ 2; ΔFIexc for all negatively charged vesicles [11]: ≥ 20; ΔFIexc for negatively charged vesicles, highest value (up to) [11]: ~80"
"c1cc2ccc3ccc(CN4CCNCCNCCNCC4)c4ccc(c1)c2c34 [II-1, 1-(pyren-1-ylmethyl)-1,4,7,10-tetraazacyclododecane]",–,–,–,–,–,–,–,–,–,–,–,–,–,–,–,–,–,–,"ΔFI of unmetallated sensor versus metallated counterpart (PA vesicles; PA vesicles): outperformed its metallated counterpart; FIexc response to increasing PA vesicle concentrations, unmetallated (PA vesicles): comparable responses; ability to detect PA vesicles in the absence of Zn^2+ (ΔFI) (PA vesicles): retained their ability to detect PA"
"c1cc2ccc3ccc(CN4CCCNCCNCCCNCC4)c4ccc(c1)c2c34 [II-3, 1-(pyren-1-ylmethyl)-1,4,8,11-tetraazacyclotetradecane]",–,–,–,–,–,–,–,–,–,–,–,–,–,–,–,–,–,–,effect of LPS kinase knockouts on fluorescence fold [12]: little to no change; effect of cardiolipin synthase knockouts on fluorescence fold [12]: greatest effect
"c1ccc(CN(Cc2ccccn2)Cc2ccc3ccc4cccc5ccc2c3c45)nc1 [II-5, 1-(pyren-1-yl)-N, N-bis(pyridin-2-ylmethyl)methanamine]",–,–,–,–,–,–,–,–,–,–,–,–,–,–,–,–,–,–,"FIexc response to increasing PA vesicle concentrations, unmetallated (PA vesicles): did not respond; ability to detect PA vesicles in the absence of Zn^2+ (ΔFI) (PA vesicles): lost their ability to sense PA; effect of LPS kinase knockouts on fluorescence fold [12]: little to no change; effect of cardiolipin synthase knockouts on fluorescence fold [12]: greatest effect"

# From US11851410B2, “Sensors for detection of negatively charged phosphate-containing membranes and membrane components” (THE GOVERNING COUNCIL OF THE UNIVERSITY OF TORONTO, priority 2017, dated 2023)
